Experimental data taken from PMC4117522, “Proteasome Inhibitors Alter Levels of Intracellular Peptides in HEK293T and SH-SY5Y Cells” (PLoS ONE, 2014).

Tested on: HEK293T cell aminopeptidase activity (Ala-AMC cleavage)
Assay: Aminopeptidase assay with Ala-AMC in HEK293T cell extracts
Format: biochemical, human
Conditions: HEK293T cell extract, 10 µM inhibitor
Method: All enzyme assays described below were performed in the linear range of the assay, as determined from time-course studies. HEK293T cells were lysed by sonication in 50 mM TrisHCl buffer, pH 7.5, containing 40 mM KCl, 5 mM MgCl2, 0.5 mM ATP, and 1 mM DTT (Buffer 1).
To measure TPP2, the fluorescent substrate was Ala-Ala-Phe-AMC. Aminopeptidase (AP) assays were performed with Leu-AMC and Ala-AMC, which detect leucine aminopeptidase (LAP), puromycin-sensitive aminopeptidase (PSAP), and other enzymes. To measure the effect of aminopeptidase/proteasome inhibitors on cleavage of Ala-Ala-Phe-AMC and Leu-AMC, 1∶50 dilution of the cell extract was pre-incubated with the inhibitor and Buffer 1 for 30 min, followed by addition of 100 µM final concentration of the respective substrate. For Ala-AMC, the same dilution of the cell extract was pre-incubated with the inhibitor and 50 mM MOPS buffer, pH 7.5, containing 40 mM KCl, 5 mM MgCl2, 0.5 mM ATP, and 1 mM DTT (Buffer 2), followed by addition of 100 µM final concentration of the substrate. After incubation at 37°C for 1 hour, enzyme activity was quantified by fluorescence measurement of the substrate (380 nm excitation, 460 nm emission).
Figure 7 Effect of aminopeptidase inhibitors on Ala-AMC and Leu-AMC cleavage. HEK 293T cell extract (panels A–D) or recombinant PSAP (panels E–F) were treated with increasing concentrations of bestatin or puromycin for 30 minutes followed by the addition of substrate and incubation for 1 hour. Enzyme activity was determined by fluorescence measurement of AMC and expressed as percentage enzyme activity relative to the control without inhibitor. (A) Bestatin inhibition of HEK293T cell extract assayed with Ala-AMC. (B) Bestatin inhibition of HEK293T cell extract assayed with Leu-AMC. (C) Puromycin inhibition of HEK293T cell extract assayed with Ala-AMC. (D) Puromycin inhibition of HEK293T cell extract assayed with Leu-AMC. (E) Puromycin inhibition of purified PSAP assayed with Ala-AMC. (F) Puromycin inhibition of purified PSAP assayed with Leu-AMC. Error bars show standard error of mean (n = 4), points without error bars had error ranges smaller than the symbol size. Statistical analysis was performed using Student’s t-test: *, p≤0.05; **, p≤0.01; ***, p≤0.001; ns, no significant difference (p>0.05) versus the control.
Figure 8 Effect of proteasome inhibitors on Ala-AMC and Leu-AMC cleavage. HEK 293T cell extract or recombinant PSAP was treated with 10 µM of each of the proteasome inhibitors for 1 hour in addition to a 30 min pre-incubation without the substrate. Enzyme activity was determined by fluorescence measurement of AMC and expressed as percentage enzyme activity relative to the control without inhibitor. Panels A and B represent the effect of proteasome inhibitors on cleavage of Ala-AMC and Leu-AMC respectively, in HEK293T cell extract. […] Error bars show standard error of mean (n = 4). Statistical analysis was performed using Student’s t-test: *, p≤0.05; **, p≤0.01; ***, p≤0.001; ns, no significant difference (p>0.05) versus the control.

With CN1C/C(=C/c2ccc(B(O)O)cc2)C(=O)/C(=C\c2ccc(B(O)O)cc2)C1 [AM114, reference compound] the “effect on cleavage of Ala-AMC” value was “without effect”.
